According to PubChem BioAssay (NCI):
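Briefly, cells in 96-well plates were exposed to five compound concentrations for 48 h, and endpoints were estimated by linear interpolation. Here, GI50 denotes the concentration required for 50% inhibition of growth. TGI: concentration producing complete growth inhibition.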

System: HCT-116 colon
Test: DTP human tumour cell line panel, 48 h

| SMILES | GI50 [µM] | TGI [µM] |
| --- | --- | --- |
| C=CCOc1c(Br)cc(Br)cc1Br | 11.4 | 66.2 |
| Cn1c(N)nc2c(nc(OCc3ccccc3)n2C2OC(CO)C(O)C2O)c1=O (stereo unspecified) | – | > 100 |
| CC(=O)n1c(-c2ccc(Cl)cc2)nc2c(c1=O)C(c1ccc(Cl)cc1)c1sc3c(Cl)cccc3c1O2 (stereo unspecified) | 0.301 | 1.44 |
| COc1cc(/C=C2\CC3C4CC=C5CC(N6CCCC6)CC[C@]5(C)C4CC[C@]3(C)C2OC(C)=O)ccc1OCCN1CCCC1 (stereo partly specified) | 1.54 | 2.87 |
| COc1ccccc1C(=O)c1ccc2ccccc2c1 | – | > 100 |
| CS(=O)(=O)Nc1ccc(-c2ccc3c(NC(=O)C4CC4)n[nH]c3c2)cc1 | > 25 | > 25 |
| C=C1C(=O)O[C@H]2[C@H]1CC/C(COC(=O)c1cc3cc(OC)ccc3[nH]1)=C\CC[C@@]1(C)O[C@@H]21 | 0.425 | 1.72 |
| COCC(=O)OC1CCn2c1nc1c2C(=O)C(C)=C(NC(C)=O)C1=O (stereo unspecified) | 4.08 | 10.4 |
| COc1ccc(C2C(C#N)=C(N)OC3=C2CCCc2ccc(F)cc23)cc1OC (stereo unspecified) | 11 | 39.1 |
| COC(=O)c1c(O)ccc2[nH]c(C)c(C#N)c12 | 22 | 61.5 |
| COc1ccc2c(c1)C=CC(C#N)N2C(=O)c1ccccc1 (stereo unspecified) | < 0.01 | > 100 |

System: HT29 colon
Test: DTP human tumour cell line panel, 48 h

| SMILES | GI50 [µM] | TGI [µM] |
| --- | --- | --- |
| C[C@H]1CCC/C=C/[C@@H]2C[C@H](N)C[C@H]2[C@H](O)/C=C/C(=O)O1 | > 100 | > 100 |
| Cc1sc(C)c(-c2ccc(CO)o2)c1-c1ccc(CO)o1 | 0.498 | > 100 |
| COc1ccc(-c2cc(-c3cc(Cl)ccc3Cl)nc3nc(=S)[nH]c(N)c23)cc1 | 37.8 | > 100 |
| CC1=C(C)C(=O)O[C@@H]([C@](C)(O)[C@]2(O)CC[C@@]3(O)[C@@H]4C[C@H]5O[C@]56CC=CC(=O)[C@]6(C)[C@H]4CC[C@]23C)C1 | 0.066 | 1.47 |
| CNC(=O)c1ccc(-c2cnc3ncc(Cc4ccc5ncccc5c4)n3n2)cc1F | > 100 | > 100 |
| COc1ccc2c(-c3cc4ccccc4o3)cc(=O)oc2c1 | – | > 100 |
| O=C(Nc1cc(-c2ccccc2)[nH]n1)c1ccc(Cl)cc1 | 6.67 | > 100 |
| CCCSc1cc(Cl)nc(N)n1 | > 100 | > 100 |
| CN1CCN(Cc2ccc(NC(=O)c3ccc(C(C)(C)C)c(C#Cc4cnc5cccnn45)c3)cc2C(F)(F)F)CC1 | 1.68 | 3.4 |
| C=CC(=O)N1CCN(c2ncnc3c(F)c(-c4c(O)cccc4F)c(Cl)cc23)CC1 | 25 | 77.7 |
| C=CCOc1c(Br)cc(Br)cc1Br | 33 | > 100 |
| Cn1c(N)nc2c(nc(OCc3ccccc3)n2C2OC(CO)C(O)C2O)c1=O (stereo unspecified) | – | > 100 |
| CC(=O)n1c(-c2ccc(Cl)cc2)nc2c(c1=O)C(c1ccc(Cl)cc1)c1sc3c(Cl)cccc3c1O2 (stereo unspecified) | 0.368 | 1.33 |
| COc1cc(/C=C2\CC3C4CC=C5CC(N6CCCC6)CC[C@]5(C)C4CC[C@]3(C)C2OC(C)=O)ccc1OCCN1CCCC1 (stereo partly specified) | 1.82 | 4.39 |
| COc1ccccc1C(=O)c1ccc2ccccc2c1 | – | 85.7 |
| CS(=O)(=O)Nc1ccc(-c2ccc3c(NC(=O)C4CC4)n[nH]c3c2)cc1 | > 23.6 | > 25 |
| C=C1C(=O)O[C@H]2[C@H]1CC/C(COC(=O)c1cc3cc(OC)ccc3[nH]1)=C\CC[C@@]1(C)O[C@@H]21 | 0.351 | 1.47 |
| COCC(=O)OC1CCn2c1nc1c2C(=O)C(C)=C(NC(C)=O)C1=O (stereo unspecified) | – | 29.5 |
| COc1ccc(C2C(C#N)=C(N)OC3=C2CCCc2ccc(F)cc23)cc1OC (stereo unspecified) | 29.6 | > 72.4 |
| COC(=O)c1c(O)ccc2[nH]c(C)c(C#N)c12 | 60.3 | > 100 |
| COc1ccc2c(c1)C=CC(C#N)N2C(=O)c1ccccc1 (stereo unspecified) | < 0.01 | > 42.1 |

System: IGROV1 ovarian
Test: DTP human tumour cell line panel, 48 h

| SMILES | GI50 [µM] | TGI [µM] |
| --- | --- | --- |
| C[C@H]1CCC/C=C/[C@@H]2C[C@H](N)C[C@H]2[C@H](O)/C=C/C(=O)O1 | > 100 | > 100 |
| Cc1sc(C)c(-c2ccc(CO)o2)c1-c1ccc(CO)o1 | 0.077 | 0.472 |
| COc1ccc(-c2cc(-c3cc(Cl)ccc3Cl)nc3nc(=S)[nH]c(N)c23)cc1 | 9.34 | > 100 |
| CC1=C(C)C(=O)O[C@@H]([C@](C)(O)[C@]2(O)CC[C@@]3(O)[C@@H]4C[C@H]5O[C@]56CC=CC(=O)[C@]6(C)[C@H]4CC[C@]23C)C1 | 0.283 | 2.59 |
| CNC(=O)c1ccc(-c2cnc3ncc(Cc4ccc5ncccc5c4)n3n2)cc1F | > 100 | > 100 |
| COc1ccc2c(-c3cc4ccccc4o3)cc(=O)oc2c1 | – | > 100 |
| O=C(Nc1cc(-c2ccccc2)[nH]n1)c1ccc(Cl)cc1 | 3.04 | > 100 |
| CCCSc1cc(Cl)nc(N)n1 | > 100 | > 100 |
| CN1CCN(Cc2ccc(NC(=O)c3ccc(C(C)(C)C)c(C#Cc4cnc5cccnn45)c3)cc2C(F)(F)F)CC1 | 2.55 | 6.99 |
| C=CC(=O)N1CCN(c2ncnc3c(F)c(-c4c(O)cccc4F)c(Cl)cc23)CC1 | 11.6 | 24.8 |
| C=CCOc1c(Br)cc(Br)cc1Br | 5.26 | 67.1 |
| Cn1c(N)nc2c(nc(OCc3ccccc3)n2C2OC(CO)C(O)C2O)c1=O (stereo unspecified) | – | > 100 |
| CC(=O)n1c(-c2ccc(Cl)cc2)nc2c(c1=O)C(c1ccc(Cl)cc1)c1sc3c(Cl)cccc3c1O2 (stereo unspecified) | 0.847 | 3.11 |
| COc1cc(/C=C2\CC3C4CC=C5CC(N6CCCC6)CC[C@]5(C)C4CC[C@]3(C)C2OC(C)=O)ccc1OCCN1CCCC1 (stereo partly specified) | 1.8 | 3.63 |
| COc1ccccc1C(=O)c1ccc2ccccc2c1 | – | 53 |
| CS(=O)(=O)Nc1ccc(-c2ccc3c(NC(=O)C4CC4)n[nH]c3c2)cc1 | > 25 | > 25 |
| C=C1C(=O)O[C@H]2[C@H]1CC/C(COC(=O)c1cc3cc(OC)ccc3[nH]1)=C\CC[C@@]1(C)O[C@@H]21 | 1.48 | 3.17 |
| COCC(=O)OC1CCn2c1nc1c2C(=O)C(C)=C(NC(C)=O)C1=O (stereo unspecified) | 4.3 | 32.7 |
| COc1ccc(C2C(C#N)=C(N)OC3=C2CCCc2ccc(F)cc23)cc1OC (stereo unspecified) | 18.3 | 46.3 |
| COC(=O)c1c(O)ccc2[nH]c(C)c(C#N)c12 | 67.2 | > 100 |
| COc1ccc2c(c1)C=CC(C#N)N2C(=O)c1ccccc1 (stereo unspecified) | – | > 100 |
